We go through 32 compounds from US20250145633A1, “SUBSTITUTED FURANOPYRIMIDINE COMPOUNDS AS PDE1 INHIBITORS” (Dart NeuroScience, LLC, priority 2017, published 2025).

Structures are written as SMILES.

The target in this test is human PDE1B enzyme (Homo sapiens (Human), UniProt Q01064). Kind of test: IMAP TR-FRET PDE1B enzymatic assay. Type of test: biochemical. To be noted: negative log of half-maximal molar inhibitory concentration, 200 nM FAM-cAMP, values given as bins; for IC50: read-out: PDE1b (pIC50) (converted). In a few lines:
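Full-length GST-tagged human PDE1B (250 pg/well) in IMAP BSA buffer with 10 U/ml calmodulin and 2.5 mM CaCl2; compound pre-incubated 5 min at room temperature, then 200 nM (final) FAM-cAMP for 30 min. IMAP binding reagent/Tb added, 1 h; TR-FRET 520/490 ratio read. IC50 from sigmoidal dose-response fit.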
In general terms: In TR-FRET formats the signal depends on donor and acceptor labels being close together.

Take `Cc1cncc(NC(=O)c2c(C)oc3ncnc(NC4(C)CC4)c23)n1` [Example 437, 6-Methyl-4-[(1-methylcyclopropyl)amino]-N-(6-methylpyrazin-2-yl)furo[2,3-d]pyrimidine-5-carboxamide]: the IC50 was 100 to 1000 nM.

Consider `Cc1ccc(NC(=O)c2c(C)oc3ncnc(NC4(C)CC4)c23)nc1` [Example 438, 6-Methyl-4-[(1-methylcyclopropyl)amino]-N-(5-methylpyridin-2-yl)furo[2,3-d]pyrimidine-5-carboxamide], for which the IC50 was 100 to 1000 nM.

Take `Cc1oc2ncnc(NC3(C)CC3)c2c1C(=O)Nc1cc(C)n(C)n1` [Example 439, N-(1,5-Dimethyl-1H-pyrazol-3-yl)-6-methyl-4-[(1-methylcyclopropyl)amino]furo[2,3-d]pyrimidine-5-carboxamide]: the IC50 was 100 to 1000 nM.

On to `COCCn1ccc(NC(=O)c2c(C)oc3ncnc(NC4(C)CC4)c23)n1` [Example 440, N-[1-(2-Methoxyethyl)-1H-pyrazol-3-yl]-6-methyl-4-[(1-methylcyclopropyl)amino]furo[2,3-d]pyrimidine-5-carboxamide], for which the IC50 is 10 to 100 nM.

For `Cc1ncc(NC(=O)c2c(C)oc3ncnc(NC4(C)CC4)c23)nc1C` [Example 441, N-(5,6-Dimethylpyrazin-2-yl)-6-methyl-4-[(1-methylcyclopropyl)amino]furo[2,3-d]pyrimidine-5-carboxamide], the IC50 was 10 to 100 nM.

With `Cc1nc(NC(=O)c2c(C)oc3ncnc(NC4(C)CC4)c23)oc1C` [Example 442, N-(Dimethyl-1,3-oxazol-2-yl)-6-methyl-4-[(1-methylcyclopropyl)amino]furo[2,3-d]pyrimidine-5-carboxamide], the IC50 is 10 to 100 nM.

As for `Cc1csc(NC(=O)c2c(C)oc3ncnc(NC4(C)CC4)c23)n1` [Example 443, 6-Methyl-N-(4-methyl-1,3-thiazol-2-yl)-4-[(1-methylcyclopropyl)amino]furo[2,3-d]pyrimidine-5-carboxamide], the IC50 is 10 to 100 nM.

With `Cc1oc2ncnc(NC3(C)CC3)c2c1C(=O)N1CCC(C#N)(c2cccc(F)n2)CC1` [Example 444, 4-(6-Fluoropyridin-2-yl)-1-{6-methyl-4-[(1-methylcyclopropyl)amino]furo[2,3-d]pyrimidine-5-carbonyl}piperidine-4-carbonitrile], the IC50 is 10 to 100 nM.

As to `Cc1oc2ncnc(NC3(C)CC3)c2c1C(=O)Nc1ccn(C(C)C)n1` [Example 445, 6-Methyl-4-[(1-methylcyclopropyl)amino]-N-[1-(propan-2-yl)-1H-pyrazol-3-yl]furo[2,3-d]pyrimidine-5-carboxamide], the IC50 was 10 to 100 nM.

For the compound `Cc1oc2ncnc(NC3(C)CC3)c2c1C(=O)Nc1ccn(-c2ncccc2F)n1` [Example 446, N-[1-(3-Fluoropyridin-2-yl)-1H-pyrazol-3-yl]-6-methyl-4-[(1-methylcyclopropyl)amino]furo[2,3-d]pyrimidine-5-carboxamide], the IC50 is 10 to 100 nM.

In the case of `Cc1oc2ncnc(NC3(C)CC3)c2c1C(=O)Nc1cnn(-c2ncccc2F)c1` [Example 447, N-[1-(3-Fluoropyridin-2-yl)-1H-pyrazol-4-yl]-6-methyl-4-[(1-methylcyclopropyl)amino]furo[2,3-d]pyrimidine-5-carboxamide], the IC50 is 10 to 100 nM.

Take `Cc1cnc(CNC(=O)c2c(C)oc3ncnc(NC4(C)CC4)c23)o1` [Example 448, 6-Methyl-N-[(5-methyl-1,3-oxazol-2-yl)methyl]-4-[(1-methylcyclopropyl)amino]furo[2,3-d]pyrimidine-5-carboxamide]: the IC50 was 10 to 100 nM.

As to `COc1nccc(CNC(=O)c2c(C)oc3ncnc(NC4(C)CC4)c23)n1` [Example 449, N-[(2-Methoxypyrimidin-4-yl)methyl]-6-methyl-4-[(1-methylcyclopropyl)amino]furo[2,3-d]pyrimidine-5-carboxamide], the IC50 is 10 to 100 nM.

As for `Cc1oc2ncnc(NC3(C)CC3)c2c1C(=O)NCc1ccc(C(F)(F)F)cn1` [Example 450, 6-Methyl-4-[(1-methylcyclopropyl)amino]-N-{[5-(trifluoromethyl)pyridin-2-yl]methyl}furo[2,3-d]pyrimidine-5-carboxamide], the “PDE1b (pIC50)” value is over 8.

With `Cc1coc(NC(=O)c2c(C)oc3ncnc(NC4(C)CC4)c23)n1` [Example 451, 6-Methyl-N-(4-methyl-1,3-oxazol-2-yl)-4-[(1-methylcyclopropyl)amino]furo[2,3-d]pyrimidine-5-carboxamide], the IC50 was 10 to 100 nM.

Take `Cc1noc(NC(=O)c2c(C)oc3ncnc(NC4(C)CC4)c23)n1` [Example 452, 6-Methyl-N-(3-methyl-1 2 4-oxadiazol-5-yl)-4-[(1-methylcyclopropyl)amino]furo[2,3-d]pyrimidine-5-carboxamide]: the IC50 is 10 to 100 nM.

On to `Cc1nc(NC(=O)c2c(C)oc3ncnc(NC4(C)CC4)c23)cs1` [Example 453, 6-Methyl-N-(2-methyl-1,3-thiazol-4-yl)-4-[(1-methylcyclopropyl)amino]furo[2,3-d]pyrimidine-5-carboxamide], for which the IC50 is 10 to 100 nM.

In the case of `Cc1nsc(NC(=O)c2c(C)oc3ncnc(NC4(C)CC4)c23)n1` [Example 454, 6-Methyl-N-(3-methyl-1,2,4-thiadiazol-5-yl)-4-[(1-methylcyclopropyl)amino]furo[2,3-d]pyrimidine-5-carboxamide], the “PDE1b (pIC50)” value is over 8.

As to `Cc1ncnc2c1CCN(C(=O)c1c(C)oc3ncnc(NC4(C)CC4)c13)C2` [Example 455, 6-Methyl-5-f{4-methyl-5H,6H,7H,8H-pyrido[3,4-d]pyrimidine-7-carbonyl}-N-(1-methylcyclopropyl)furo[2,3-d]pyrimidin-4-amine], the IC50 was 10 to 100 nM.

For the compound `Cc1oc2ncnc(NC3(C)CC3)c2c1C(=O)Nc1cnn(C2CCOCC2)c1` [Example 456, 6-Methyl-4-[(1-methylcyclopropyl)amino]-N-[1-(oxan-4-yl)-1H-pyrazol-4-yl]furo[2,3-d]pyrimidine-5-carboxamide], the IC50 was 10 to 100 nM.

Turning to `Cc1oc2ncnc(NC3(C)CC3)c2c1C(=O)NCc1noc(C(F)(F)F)n1` [Example 457, 6-Methyl-4-[(1-methylcyclopropyl)amino]-N-{[5-(trifluoromethyl)-1,2,4-oxadiazol-3-yl]methyl}furo[2,3-d]pyrimidine-5-carboxamide], the IC50 was 10 to 100 nM.

For the compound `Cc1ccnc(CNC(=O)c2c(C)oc3ncnc(NC4(C)CC4)c23)n1` [Example 458, 6-Methyl-4-[(1-methylcyclopropyl)amino]-N-[(4-methylpyrimidin-2-yl)methyl]furo[2,3-d]pyrimidine-5-carboxamide], the IC50 was 10 to 100 nM.

As for `Cc1cc(C)nc(CNC(=O)c2c(C)oc3ncnc(NC4(C)CC4)c23)n1` [Example 459, N-[(4,6-Dimethylpyrimidin-2-yl)methyl]-6-methyl-4-[(1-methylcyclopropyl)amino]furo[2,3-d]pyrimidine-5-carboxamide], the IC50 is 10 to 100 nM.

Regarding `Cc1cnc(CNC(=O)c2c(C)oc3ncnc(NC4(C)CC4)c23)cn1` [Example 460, 6-Methyl-4-[(1-methylcyclopropyl)amino]-N-[(5-methylpyrazin-2-yl)methyl]furo[2,3-d]pyrimidine-5-carboxamide], the “PDE1b (pIC50)” value is over 8.

As for `Cc1nc(CNC(=O)c2c(C)oc3ncnc(NC4(C)CC4)c23)no1` [Example 461, 6-Methyl-N-[(5-methyl-1,2,4-oxadiazol-3-yl)methyl]-4-[(1-methylcyclopropyl)amino]furo[2,3-d]pyrimidine-5-carboxamide], the IC50 is 10 to 100 nM.

Regarding `COC(=O)c1cnc(C2CN(C(=O)c3c(C)oc4ncnc(NC5(C)CC5)c34)C2)nc1` [Example 462, Methyl 2-(1-{6-methyl-4-[(1-methylcyclopropyl)amino]furo[2,3-d]pyrimidine-5-carbonyl}azetidin-3-yl)pyrimidine-5-carboxylate], the IC50 is 100 to 1000 nM.

As for `Cc1oc2ncnc(NC3(C)CC3)c2c1C(=O)NCc1nnc2ccc(C(F)(F)F)cn12` [Example 463, 6-Methyl-4-[(1-methylcyclopropyl)amino]-N-{[6-(trifluoromethyl)-[1,2,4]triazolo[4,3-a]pyridin-3-yl]methyl}furo[2,3-d]pyrimidine-5-carboxamide], the IC50 was 10 to 100 nM.

In the case of `Cc1oc2ncnc(NC3(C)CC3)c2c1C(=O)NCc1noc(C2CC2)n1` [Example 464, N-[(5-Cyclopropyl-1,2,4-oxadiazol-3-yl)methyl]-6-methyl-4-[(1-methylcyclopropyl)amino]furo[2,3-d]pyrimidine-5-carboxamide], the “PDE1b (pIC50)” value is given as over 8.

On to `Cc1oc2ncnc(NC3(C)CC3)c2c1C(=O)N1CCc2c(ncnc2OC(C)C)C1` [Example 465, 6-Methyl-N-(1-methylcyclopropyl)-5-[4-(propan-2-yloxy)-5H,6H,7H,8H-pyrido[3,4-d]pyrimidine-7-carbonyl]furo[2,3-d]pyrimidin-4-amine], for which the IC50 was 10 to 100 nM.

In the case of `Cc1ccnc(CNC(=O)c2c(C)oc3ncnc(NC4(C)CC4)c23)c1` [Example 466, 6-Methyl-4-[(1-methylcyclopropyl)amino]-N-[(4-methylpyridin-2-yl)methyl]furo[2,3-d]pyrimidine-5-carboxamide], the IC50 was 10 to 100 nM.

For the compound `Cc1cnc(CNC(=O)c2c(C)oc3ncnc(NC4(C)CC4)c23)s1` [Example 467, 6-Methyl-N-[(5-methyl-1,3-thiazol-2-yl)methyl]-4-[(1-methylcyclopropyl)amino]furo[2,3-d]pyrimidine-5-carboxamide], the “PDE1b (pIC50)” value was over 8.

Regarding `Cc1nnc(CNC(=O)c2c(C)oc3ncnc(NC4(C)CC4)c23)s1` [Example 468, 6-Methyl-N-[(5-methyl-1,3,4-thiadiazol-2-yl)methyl]-4-[(1-methylcyclopropyl)amino]furo[2,3-d]pyrimidine-5-carboxamide], the IC50 is 10 to 100 nM.
